IC50 data for 26 compounds are collected here from patent publication US8759342B2, “Benzo[1,4]oxazin-3-one, benzo[1,4]thiazin-3-one and quinolin-2-one urotensin II receptor antagonists” (Janssen Pharmaceutica NV, priority 2006, dated 2014).

The target in the assay is T1, rat GPR14 (U-II receptor) (Rattus norvegicus, UniProt P49684).
T1 construct: expressed in transfected cells
T1 sequence (P49684 1-386): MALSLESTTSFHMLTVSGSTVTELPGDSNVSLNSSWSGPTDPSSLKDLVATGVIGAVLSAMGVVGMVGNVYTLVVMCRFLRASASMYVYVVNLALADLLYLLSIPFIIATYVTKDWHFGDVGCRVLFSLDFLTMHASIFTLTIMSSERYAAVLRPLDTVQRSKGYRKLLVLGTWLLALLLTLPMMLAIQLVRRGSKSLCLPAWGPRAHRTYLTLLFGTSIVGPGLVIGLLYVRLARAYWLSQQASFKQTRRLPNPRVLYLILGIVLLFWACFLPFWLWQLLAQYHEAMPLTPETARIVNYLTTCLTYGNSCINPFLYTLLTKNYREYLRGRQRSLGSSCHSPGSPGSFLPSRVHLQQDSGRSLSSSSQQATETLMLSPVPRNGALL
Nature of the assay: Calcium flux assay (FLIPR). The following applies: Inhibition of acetyl-cyclic[Cys-Phe-Trp-Lys-(2-Nal)-Cys]-NH2 (1 nM) induced Ca2+ mobilization (FLIPR) in CHO cells transfected with rat UII receptor; 5 min incubation. Type of assay: cell-based. An excerpt:
To derive these cells, the complete coding sequence of rat […] was amplified by nested PCR from rat heart marathon-Ready cDNA. […] The PCR products were cloned into pcDNA3 (Invitrogen) digested with EcoR I and Xba I. Clones containing rat U-II receptor were verified by complete sequencing of the U-II receptor insert to ensure a lack of PCR-introduced errors. The constructed vector was transfected into CHO cells by using lipofectamine (GIBCO BRL). CHO cells with high expression of rat U-II receptor were selected and established as stable cell lines by using G418. CHO cells were seeded at 25,000 cells per well into 96-well, black-wall, clear-bottom microtiter plates 24 hrs before assay. Cells in culture media (DMEM/F12 containing 15 mM HEPES, L-glutamine, pyridoxine hydrochloride; 10% fetal bovine serum; 1 mg/mL G418 sulfate; antibiotic-antimycotic; pH 7.4) were loaded with proprietary dye, from the FLIPR Calcium Assay Kit (Molecular Devices), prepared in assay buffer (Hanks Balanced Salts Solution, 20 mM HEPES, 0.1% BSA, 2.5 mM probenecid, pH 7.4), and incubated for 1 hr at 37° C. Calcium mobilization determinations were performed at room temperature (23° C.).
Turning to `O=C(NCCN1CCCCC1)c1ccccc1C1CCN(CCN2C(=O)COc3ccccc32)CC1` [Cpd 52, 2-{1-[2-(3-oxo-2,3-dihydro-benzo[1,4]oxazin-4-yl)-ethyl]-piperidin-4-yl}-N-(2-piperidin-1-yl-ethyl)-benzamide], the IC50 is 16 µM. With `O=C(NCCCN1CCCC1=O)c1ccccc1C1CCN(CCN2C(=O)COc3ccccc32)CC1` [Cpd 51, 2-{1-[2-(3-oxo-2,3-dihydro-benzo[1,4]oxazin-4-yl)-ethyl]-piperidin-4-yl}-N-[3-(2-oxo-pyrrolidin-1-yl)-propyl]-benzamide], the IC50 was determined as 22 µM. Take `O=C1COc2ccccc2N1CCN1CCC(c2ccccc2)CC1` [Cpd 86, 4-[2-(4-phenyl-piperidin-1-yl)-ethyl]-4H-benzo[1,4]oxazin-3-one]: the IC50 amounted to 24 µM. As for `COc1ccc(CCNC(=O)c2ccccc2C2CCN(CCN3C(=O)COc4ccccc43)CC2)cc1OC` [Cpd 10, N-[2-(3,4-dimethoxy-phenyl)-ethyl]-2-{1-[2-(3-oxo-2,3-dihydro-benzo[1,4]oxazin-4-yl)-ethyl]-piperidin-4-yl}-benzamide], the figure is 13 µM; as for `COc1ccc(C2CCN(CCN3C(=O)COc4ccccc43)CC2)cc1` [Cpd 87, 4-{2-[4-(4-methoxy-phenyl)-piperidin-1-yl]-ethyl}-4H-benzo[1,4]oxazin-3-one], 47 µM. For `O=C(NCCc1ccc(Cl)cc1Cl)c1ccccc1C1CCN(CCN2C(=O)COc3ccccc32)CC1` [Cpd 7, N-[2-(2,4-dichloro-phenyl)-ethyl]-2-{1-[2-(3-oxo-2,3-dihydro-benzo[1,4]oxazin-4-yl)-ethyl]-piperidin-4-yl}-benzamide] the value was 19 µM; for `CC(Cc1ccc(Cl)cc1)NC(=O)c1ccccc1C1CCN(CCN2C(=O)COc3ccccc32)CC1` (centres unmarked) [Cpd 12, N-[2-(4-chloro-phenyl)-1-methyl-ethyl]-2-{1-[2-(3-oxo-2,3-dihydro-benzo[1,4]oxazin-4-yl)-ethyl]-piperidin-4-yl}-benzamide], 10 µM. As for `O=C(NCCCn1ccnc1)c1ccccc1C1CCN(CCN2C(=O)COc3ccccc32)CC1` [Cpd 48, N-(3-imidazol-1-yl-propyl)-2-{1-[2-(3-oxo-2,3-dihydro-benzo[1,4]oxazin-4-yl)-ethyl]-piperidin-4-yl}-benzamide], the figure is 43 µM.

With `O=C1COc2ccccc2N1CCN1CCC(C(=O)NCCc2ccccc2)(c2ccccc2)CC1` [Cpd 105, 1-[2-(3-oxo-2,3-dihydro-benzo[1,4]oxazin-4-yl)-ethyl]-4-phenyl-piperidine-4-carboxylic acid phenethyl-amide], the IC50 was 7 µM. As for `O=C(NCCc1cccc(F)c1F)c1ccccc1C1CCN(CCN2C(=O)COc3ccccc32)CC1` [Cpd 23, N-[2-(2,3-difluoro-phenyl)-ethyl]-2-{1-[2-(3-oxo-2,3-dihydro-benzo[1,4]oxazin-4-yl)-ethyl]-piperidin-4-yl}-benzamide], the figure is 7 µM; as for `O=C1COc2ccccc2N1CCN1CCC(c2ccc(Cl)cc2)CC1` [Cpd 85, 4-{2-[4-(4-chloro-phenyl)-piperidin-1-yl]-ethyl}-4H-benzo[1,4]oxazin-3-one], 18 µM.

For the compound `O=C(NCCN1CCCC1)c1ccccc1C1CCN(CCN2C(=O)COc3ccccc32)CC1` [Cpd 30, 2-{1-[2-(3-oxo-2,3-dihydro-benzo[1,4]oxazin-4-yl)-ethyl]-piperidin-4-yl}-N-(2-pyrrolidin-1-yl-ethyl)-benzamide], the IC50 was found to be 32 µM. As for `O=C1COc2ccccc2N1CCN1CCC(C(=O)NCCc2ccccc2)(c2ccc(Cl)cc2)CC1` [Cpd 109, 4-(4-chloro-phenyl)-1-[2-(3-oxo-2,3-dihydro-benzo[1,4]oxazin-4-yl)-ethyl]-piperidine-4-carboxylic acid phenethyl-amide], the figure is 5 µM. As for `O=C1COc2ccccc2N1CCN1CCC(c2cccc(F)c2)CC1` [Cpd 88, 4-{2-[4-(3-fluoro-phenyl)-piperidin-1-yl]-ethyl}-4H-benzo[1,4]oxazin-3-one], the figure is 28 µM; as for `O=C1COc2ccccc2N1CCN1C2CCC1CC(c1ccccc1)C2` (centres unmarked) [Cpd 101, 4-[2-(3-phenyl-8-aza-bicyclo[3.2.1]oct-8-yl)-ethyl]-4H-benzo[1,4]oxazin-3-one], 19 µM; as for `O=C(NCCc1cc(F)cc(F)c1)c1ccccc1C1CCN(CCN2C(=O)COc3ccccc32)CC1` [Cpd 21, N-[2-(3,5-difluoro-phenyl)-ethyl]-2-{1-[2-(3-oxo-2,3-dihydro-benzo[1,4]oxazin-4-yl)-ethyl]-piperidin-4-yl}-benzamide], 9 µM.

As for `O=C(NCCc1ccc(F)cc1)c1ccccc1C1CCN(CCN2C(=O)COc3ccccc32)CC1` [Cpd 16, N-[2-(4-fluoro-phenyl)-ethyl]-2-{1-[2-(3-oxo-2,3-dihydro-benzo[1,4]oxazin-4-yl)-ethyl]-piperidin-4-yl}-benzamide], the IC50 was 8 µM. As for `CN(CCc1ccccc1)C(=O)c1ccccc1C1CCN(CCN2C(=O)COc3ccccc32)CC1` [Cpd 18, N-methyl-2-{1-[2-(3-oxo-2,3-dihydro-benzo[1,4]oxazin-4-yl)-ethyl]-piperidin-4-yl}-N-phenethyl-benzamide], the figure is 15 µM; as for `O=C(NCCNC(=O)c1ccccc1C1CCN(CCN2C(=O)COc3ccccc32)CC1)Nc1ccc2ccccc2c1` [Cpd 54, N-[2-(3-naphthalen-2-yl-ureido)-ethyl]-2-{1-[2-(3-oxo-2,3-dihydro-benzo[1,4]oxazin-4-yl)-ethyl]-piperidin-4-yl}-benzamide], 7 µM; as for `O=C1COc2ccccc2N1CCN1CCC(c2ccccc2F)CC1` [Cpd 89, 4-{2-[4-(2-fluoro-phenyl)-piperidin-1-yl]-ethyl}-4H-benzo[1,4]oxazin-3-one], 23 µM. As for `CCCNC(=O)c1ccccc1C1CCN(CCN2C(=O)COc3ccccc32)CC1` [Cpd 29, 2-{1-[2-(3-oxo-2,3-dihydro-benzo[1,4]oxazin-4-yl)-ethyl]-piperidin-4-yl}-N-propyl-benzamide], the figure is 20 µM; as for `O=C(NCCCO)c1ccccc1C1CCN(CCN2C(=O)COc3ccccc32)CC1` [Cpd 39, N-(3-hydroxy-propyl)-2-{1-[2-(3-oxo-2,3-dihydro-benzo[1,4]oxazin-4-yl)-ethyl]-piperidin-4-yl}-benzamide], 32 µM.

With `O=C(NC1CCc2ccccc21)c1ccccc1C1CCN(CCN2C(=O)COc3ccccc32)CC1` (centres unmarked) [Cpd 27, N-indan-1-yl-2-{1-[2-(3-oxo-2,3-dihydro-benzo[1,4]oxazin-4-yl)-ethyl]-piperidin-4-yl}-benzamide], the IC50 is 43 µM. On to `COc1ccc(CCNC(=O)c2ccccc2C2CCN(CCN3C(=O)COc4ccccc43)CC2)cc1` [Cpd 14, N-[2-(4-methoxy-phenyl)-ethyl]-2-{1-[2-(3-oxo-2,3-dihydro-benzo[1,4]oxazin-4-yl)-ethyl]-piperidin-4-yl}-benzamide], for which the IC50 was determined as 4 µM. Take `CC(=O)NCCNC(=O)c1ccccc1C1CCN(CCN2C(=O)COc3ccccc32)CC1` [Cpd 49, N-(2-acetylamino-ethyl)-2-{1-[2-(3-oxo-2,3-dihydro-benzo[1,4]oxazin-4-yl)-ethyl]-piperidin-4-yl}-benzamide]: the IC50 worked out at 38 µM. Consider `COCCCNC(=O)c1ccccc1C1CCN(CCN2C(=O)COc3ccccc32)CC1` [Cpd 37, N-(3-methoxy-propyl)-2-{1-[2-(3-oxo-2,3-dihydro-benzo[1,4]oxazin-4-yl)-ethyl]-piperidin-4-yl}-benzamide], for which the IC50 is 30 µM.

Broadly, the IC50 is the concentration needed to halve the response being measured.
